According to patent US20210259954A1, “CILIA-TARGETING NANOPARTICLES” (Chapman University, priority 2019, published 2021):

Tests used:
[1] = tested on: Tie2Cre⋅Pkd2^flox/flox mice; assay: Working heart perfusion system, hearts of treated Pkd2 mice (Example 1); assay type: in vivo, mouse; settings: for CO, cardiac output / EDPVR, end-diastolic pressure volume relation / EF, ejection fraction / ESPVR, end-systolic pressure volume relation / HR, heart rate / LV EDP, end-diastolic pressure / LV EDV, end-diastolic volume / LV ESP, end-systolic pressure / LV ESV, end-systolic volume / LV Pmax, systolic pressure / SV, stroke volume / SW, stroke work / dP/dtmax, maximum rate of LV pressure rise / dP/dtmin, maximum rate of LV pressure fall: Pkd2 heart
Experimental: One-week-old Tie2Cre⋅Pkd2^WT/WT (with cre activation; control group) or Tie2Cre⋅Pkd2^flox/flox (without cre activation; control group), and Tie2Cre⋅Pkd2^flox/flox (with cre activation; experimental group) mice were injected intra-peritoneally with 5 μg/μL tamoxifen every day for five consecutive days. […] The mice were next injected with PBS (control), CT-DAu-NPs or CT-PLGA-NPs (0.5 to 2.0 mg/kg body weight) via intravenous (IV) injections. […] The mice were treated every 72 hours with different NPs for 8 weeks.
Working Heart Perfusion System. To study heart function independently from neuronal innervation or humoral effect, ex vivo heart parameters were collected using a mouse working heart system from Emka Technologies. This system collected data of the cardiac contractile strength, electrical heart propagation (ECG; electrocardiogram) and other cardiac functions, including the heart rate (HR), left ventricle pressure (LVP), left ventricular volume (LVV), left atrial pressure (LAP), aortic out flow (AOF), stroke volume (SV), cardiac output (CO), end diastolic/systolic volume (Edv-Esv), rate of left atrial pressure raise (+dp/dt) and fall (−dt/dt), preload, afterload, and main aortic pressure. Heparin (100 units, IP), xylazine (10-15 mg/kg, IP), and ketamine (200-350 mg/kg, IP) were used to prevent blood coagulation in the coronary arteries and to anesthetize the mice. After cannulation, the heart was perfused with Krebs-Ringer superfusion solution (in mM: 125 NaCl, 2.5 KCl, 1.25 NaH2PO4, 2 CaCl2, 1 MgCl2, 25 NHCO3 and 25 glucose). Throughout the experiment, the solution was continuously bubbled with carbogen (95% O2 and 5% CO2) to reach 7.4 pH at 38° C. Stress tests were performed in the heart by perfusing epinephrine (4 μg/L) or diltiazem (0.08 μg/L). The cardiac function was plotted in a loop diagram showing the LVV-LVP relationship (volume-pressure loop).

primary cilia = assay: Ca2+ and NO imaging under fluid shear stress (Example 1); assay type: cell-based; settings: fluid shear 0.5 dyn/cm^2, vs corresponding controls
Experimental: Ca^2+ and NO Imaging. For monolayer cell populations, intracellular measurements were obtained. […] After washed to remove excess Fura-2 AM, cytosolic Ca^2+ images were captured every second by recording Ca^2+-bound Fura-2 AM excitation fluorescence at 340/380 nm and emission at 510 nm. For intracellular nitric oxide (NO) measurements, the cells were incubated for 30 minutes at 37° C. with 20 μM DAF-FM (Cayman Chemicals). NO was then measured every second at the excitation and emission wavelengths of 495 and 515 nm, respectively. The cells were placed in PBS during the experiments and observed with a Nikon Eclipse Ti microscope. Fluid shear stress was then applied to cells through InsTech P720 peristaltic pumps with an inlet and outlet setup. The fluid was perfused through cell monolayers at a sub-minimal shear stress of 0.5 dyn/cm^2.
In single-cell studies, cells were grown on 2% Formvar® and transfected with the Ca^2+ fluorescence reporter 5HT6-mCherry-G-GECO1.0 (Addgene) using the JetPrime transfection reagent (Polyplus transfection). The shear stress ranged from 0.01-1.0 dyn/cm^2 and was accurately measured and controlled at all times. […] For these experiments, none of the CT-NPs contained AF594 dye to avoid interference with the mCherry signal. Confocal laser scanning microscopy in fast-scan mode was used to avoid potential excessive photo bleaching. […]

p-ERK = assay: Immunoblotting of phosphorylated ERK; assay type: cell-based
Experimental: Immunoblotting. […] Samples were kept on ice during sonication to prevent overheating. Samples were then centrifuged at 15,000 rpm for 20 min, and the supernatants were collected and subjected to protein quantification. The PAGE (polyacrylamide gel electrophoresis) on 6-10% SDS gels was performed followed by semi-dry transfer to PVDF membranes using a Bio-Rad Trans-Blot Turbo Transfer System and detection using antibodies against t-ERK (1:1,000), p-ERK (1:1,000), NOS (1:200), and GAPDH (1:2,000) (Cell Signaling Technology). Blots were scanned with both calorimetry to image molecular markers and chemiluminescence to capture the protein signal intensity using a Bio-Rad imager.

[2] = tested on: Tie2Cre⋅Pkd2^flox/flox mice; assay: Working heart perfusion system, hearts of treated Pkd2 mice (Example 2); assay type: in vivo, mouse
Experimental: All mouse experiments were performed by two operators who were blinded to the experimental conditions. […] One-week-old Tie2Cre⋅Pkd2^WT/WT (with Cre activation; control group), Tie2Cre⋅Pkd2^flox/flox (without Cre activation; control group) or Tie2Cre⋅Pkd2^flox/flox (with Cre activation; experimental group) mice were intraperitoneally injected with 250 μg of tamoxifen in a 50-μL volume daily for five consecutive days.
The ex vivo measurements of heart parameters were recorded using a mouse working heart system from Emka Technologies to study heart function independently of neuronal innervation or humoural effects. This system collected data regarding the cardiac contractile strength, electrical heart propagation or ECG and other cardiac functions, including the HR, LVP, LVV, left atrial pressure (LAP), aortic out flow (AOF), stroke volume (SV), cardiac output (CO), end diastolic/systolic volume (Edv-Esv), rate of left atrial pressure raise (+dp/dt) and fall (−dt/dt), and the preload, afterload, and main aortic pressure. Heparin (100 units, IP), xylazine (10-15 mg/kg, IP), and ketamine (200-350 mg/kg, IP) were used to prevent blood coagulation in the coronary arteries and to anaesthetize the mice. After cannulation, the heart was perfused with Krebs-Ringer superfusion solution (in mM: 125 NaCl, 2.5 KCl, 1.25 NaH2PO4, 2 CaCl2, 1 MgCl2, 25 NaHCO3 and 25 glucose). Throughout the experiment, the solution was continuously bubbled with carbogen (95% O2 and 5% CO2) to reach pH 7.4 at 38.0° C. Stress tests were performed on the heart by perfusing epinephrine (4 μg/L) or diltiazem (0.08 μg/L). Cardiac function was plotted in a loop diagram showing the LVV-LVP relationship (volume-pressure loop).

Oc1ccc(C2CNCCc3c2cc(O)c(O)c3Cl)cc1 (stereo not shown) [Fenoldopam, fenoldopam]
CO, cardiac output ([1]; diltiazem stress): 1873 ± 70 µL/min
EDPVR, end-diastolic pressure volume relation ([1]; diltiazem stress): 0.14 ± 0.01 mmHg/μL
EF, ejection fraction ([1]; diltiazem stress): 51.6 ± 1.4%
ESPVR, end-systolic pressure volume relation ([1]; diltiazem stress): 2.3 ± 0.1 mmHg/μL
HR, heart rate ([1]; diltiazem stress): 98 ± 9 beat/min
LV EDP, end-diastolic pressure ([1]; diltiazem stress): 5.7 ± 0.2 mmHg
LV EDV, end-diastolic volume ([1]; diltiazem stress): 40.3 ± 0.8 µL
LV ESP, end-systolic pressure ([1]; diltiazem stress): 33.5 ± 0.5 mmHg
LV ESV, end-systolic volume ([1]; diltiazem stress): 19.5 ± 0.6 µL
LV Pmax, systolic pressure ([1]; diltiazem stress): 44.7 ± 0.7 mmHg
SV, stroke volume ([1]; diltiazem stress): 20.8 ± 0.8 µL
SW, stroke work ([1]; diltiazem stress): 812 ± 29 mmHg · μL
dP/dtmax, maximum rate of LV pressure rise ([1]; diltiazem stress): 4020 ± 643 mmHg/s
dP/dtmin, maximum rate of LV pressure fall ([1]; diltiazem stress): −1537 ± 97 mmHg/s
CO, cardiac output ([1]; epinephrine stress): 6810 ± 347 µL/min
EDPVR, end-diastolic pressure volume relation ([1]; epinephrine stress): 0.16 ± 0.01 mmHg/μL
EF, ejection fraction ([1]; epinephrine stress): 77.7 ± 2.0%
ESPVR, end-systolic pressure volume relation ([1]; epinephrine stress): 9.7 ± 0.9 mmHg/μL
HR, heart rate ([1]; epinephrine stress): 219 ± 44 beat/min
LV EDP, end-diastolic pressure ([1]; epinephrine stress): 6.4 ± 0.5 mmHg
LV EDV, end-diastolic volume ([1]; epinephrine stress): 39.9 ± 0.1 µL
LV ESP, end-systolic pressure ([1]; epinephrine stress): 63.2 ± 0.3 mmHg
LV ESV, end-systolic volume ([1]; epinephrine stress): 8.9 ± 0.8 µL
LV Pmax, systolic pressure ([1]; epinephrine stress): 84.3 ± 0.4 mmHg
SV, stroke volume ([1]; epinephrine stress): 31.1 ± 0.7 µL
SW, stroke work ([1]; epinephrine stress): 2417 ± 28 mmHg · μL
dP/dtmax, maximum rate of LV pressure rise ([1]; epinephrine stress): 16864 ± 85 mmHg/s
dP/dtmin, maximum rate of LV pressure fall ([1]; epinephrine stress): −3843 ± 277 mmHg/s
CO, cardiac output ([1]; vehicle): 3486 ± 81 µL/min
EDPVR, end-diastolic pressure volume relation ([1]; vehicle): 0.13 ± 0.01 mmHg/μL
EF, ejection fraction ([1]; vehicle): 62.5 ± 0.2%
ESPVR, end-systolic pressure volume relation ([1]; vehicle): 4.4 ± 0.1 mmHg/μL
HR, heart rate ([1]; vehicle): 140 ± 24 beat/min
LV EDP, end-diastolic pressure ([1]; vehicle): 5.0 ± 0.1 mmHg
LV EDV, end-diastolic volume ([1]; vehicle): 40.0 ± 0.1 µL
LV ESP, end-systolic pressure ([1]; vehicle): 49.7 ± 1.5 mmHg
LV ESV, end-systolic volume ([1]; vehicle): 15.0 ± 0.1 µL
LV Pmax, systolic pressure ([1]; vehicle): 66.3 ± 2.0 mmHg
SV, stroke volume ([1]; vehicle): 24.9 ± 0.1 µL
SW, stroke work ([1]; vehicle): 1530 ± 20 mmHg · μL
dP/dtmax, maximum rate of LV pressure rise ([1]; vehicle): 7157 ± 211 mmHg/s
dP/dtmin, maximum rate of LV pressure fall ([1]; vehicle): −1624 ± 24 mmHg/s
LVP/LVV abnormalities (P-V loops) ([1]; Pkd2 hearts): Both CTNDDS but not fenoldopam-alone corrected these abnormalities
arrhythmia (ECG) ([1]; Pkd2 hearts, 8-week treatment): could be corrected with 8-week treatment of CTNDDS but not fenoldopam-alone
NO biosynthesis (primary cilia): significantly increased
cytosolic Ca^2+ (primary cilia): significantly increased cytosolic Ca^2+
ERK phosphorylation (p-ERK): increased ERK phosphorylation
CO, cardiac output ([2]; diltiazem stress): 1783 ± 32 µL/min
EDPVR, end-diastolic pressure volume relation ([2]; diltiazem stress): 0.14 ± 0.01 mmHg/μL
EF, ejection fraction ([2]; diltiazem stress): 49.5 ± 0.3%
ESPVR, end-systolic pressure volume relation ([2]; diltiazem stress): 2.21 ± 0.03 mmHg/μL
HR, heart rate ([2]; diltiazem stress): 94 ± 11 beat/min
LV EDP, end-diastolic pressure ([2]; diltiazem stress): 5.7 ± 0.2 mmHg
LV EDV, end-diastolic volume ([2]; diltiazem stress): 40.0 ± 0.4 µL
LV ESP, end-systolic pressure ([2]; diltiazem stress): 35.5 ± 0.5 mmHg
LV ESV, end-systolic volume ([2]; diltiazem stress): 20.2 ± 0.1 µL
LV Pmax, systolic pressure ([2]; diltiazem stress): 44.7 ± 0.7 mmHg
SV, stroke volume ([2]; diltiazem stress): 19.8 ± 0.3 µL
SW, stroke work ([2]; diltiazem stress): 772 ± 10 mmHg · μL
dP/dtmax, maximum rate of LV pressure rise ([2]; diltiazem stress): 4020 ± 642 mmHg/s
dP/dtmin, maximum rate of LV pressure fall ([2]; diltiazem stress): −1537 ± 97 mmHg/s
EDPVR, end-diastolic pressure volume relation ([2]; epinephrine stress): 0.16 ± 0.01 mmHg/μL
EF, ejection fraction ([2]; epinephrine stress): 77.7 ± 2.0%
ESPVR, end-systolic pressure volume relation ([2]; epinephrine stress): 9.8 ± 0.88 mmHg/μL
HR, heart rate ([2]; epinephrine stress): 216 ± 47 beat/min
LV EDP, end-diastolic pressure ([2]; epinephrine stress): 6.4 ± 0.5 mmHg
LV EDV, end-diastolic volume ([2]; epinephrine stress): 39.9 ± 0.1 µL
LV ESP, end-systolic pressure ([2]; epinephrine stress): 64.2 ± 0.9 mmHg
LV ESV, end-systolic volume ([2]; epinephrine stress): 8.9 ± 0.8 µL
LV Pmax, systolic pressure ([2]; epinephrine stress): 85.6 ± 1.2 mmHg
SV, stroke volume ([2]; epinephrine stress): 31.0 ± 0.8 µL
SW, stroke work ([2]; epinephrine stress): 2569 ± 53 mmHg · μL
dP/dtmax, maximum rate of LV pressure rise ([2]; epinephrine stress): 17130 ± 239 mmHg/s
dP/dtmin, maximum rate of LV pressure fall ([2]; epinephrine stress): −3844 ± 278 mmHg/s
CO, cardiac output ([2]; vehicle): 3402 ± 92 µL/min
EDPVR, end-diastolic pressure volume relation ([2]; vehicle): 0.13 ± 0.01 mmHg/μL
EF, ejection fraction ([2]; vehicle): 62.5 ± 0.2%
ESPVR, end-systolic pressure volume relation ([2]; vehicle): 4.6 ± 0.04 mmHg/μL
HR, heart rate ([2]; vehicle): 136 ± 26 beat/min
LV EDP, end-diastolic pressure ([2]; vehicle): 5.0 ± 0.1 mmHg
LV EDV, end-diastolic volume ([2]; vehicle): 40.0 ± 0.1 µL
LV ESP, end-systolic pressure ([2]; vehicle): 52.2 ± 0.5 mmHg
LV ESV, end-systolic volume ([2]; vehicle): 15.0 ± 0.1 µL
LV Pmax, systolic pressure ([2]; vehicle): 69.7 ± 0.7 mmHg
SV, stroke volume ([2]; vehicle): 25.0 ± 0.1 µL
SW, stroke work ([2]; vehicle): 1616 ± 70 mmHg · μL
dP/dtmax, maximum rate of LV pressure rise ([2]; vehicle): 7524 ± 71 mmHg/s
dP/dtmin, maximum rate of LV pressure fall ([2]; vehicle): −1625 ± 27 mmHg/s
